Experimental data: PMC5521788, “In Vitro comparison of ^213Bi- and ^177Lu-radiation for peptide receptor radionuclide therapy” (PLoS ONE, 2017)

Tests used:
CA20948 cells = test: Clonogenic assay, CA20948 cells; type: cell-based, rat
Description: Before irradiation of the cells, 500 cells were seeded in 6-well plates (pre-coated with poly-l-lysine) 24 h before the experiment. […] After irradiation, internalization medium containing radioligand was removed. […] Every 2 or 3 d, medium was replaced by fresh culture medium. […] The 6-well plates containing colonies were scanned with a HP-scanner at 200 dpi. The colonies in each well were counted by a clonocounter. The survival was plotted as a function of absorbed dose and fitted to linear-quadratic (LQ) or linear-exponential curves. The cell absorbed dose during the incubation period was calculated with a dosimetry model of the 6-well plate, as described by Verwijnen et al.. The 3.5 cm diameter well cavity was modeled in the Monte Carlo radiation transport code Monte Carlo N-Particle […] (version 2.5.0, Los Alamos National Laboratory, USA) with homogeneously distributed radioactivity over the 2 mL volume aqueous liquid within the cavity. […] The division the layers of the well were as followed; 18 layers of 100 μm and 8 layers of 25 μm at the bottom of the well. […] D (25μm←fluid)=Ãfluid(1)×S(25μm←fluid)=∫T0TAfluide^-λtdt×S(25μm←fluid) […] The dosimetry for the specific uptake of radioactivity in the cells was calculated with the multicellular dosimetry code MIRD cell. […] Initially 500 cells were plated over the 9.62 cm^2 surface of the well. For evenly distributed cells over the surface the mean inter-cell distance would be 770 μm. In reality the cells were more clustered to the center of the well. […] The number of disintegrations within each cell (or Time-Integrated Activity per cell ã) was calculated by integration of the decay function of ^177Lu and ^213Bi and its progeny over the 12 d irradiation time multiplied by the ƒint and ƒmem per cell. This assumes that ƒmem will remain bound to the cells and ƒint remains trapped in the cell over a period of 12 d.

BON cells = test: Clonogenic assay, BON cells; type: cell-based, human
Description: Before irradiation of the cells, 500 cells were seeded in 6-well plates (pre-coated with poly-l-lysine) 24 h before the experiment. […] After irradiation, internalization medium containing radioligand was removed. […] Every 2 or 3 d, medium was replaced by fresh culture medium. […] The 6-well plates containing colonies were scanned with a HP-scanner at 200 dpi. The colonies in each well were counted by a clonocounter. The survival was plotted as a function of absorbed dose and fitted to linear-quadratic (LQ) or linear-exponential curves. The cell absorbed dose during the incubation period was calculated with a dosimetry model of the 6-well plate, as described by Verwijnen et al.. The 3.5 cm diameter well cavity was modeled in the Monte Carlo radiation transport code Monte Carlo N-Particle […] (version 2.5.0, Los Alamos National Laboratory, USA) with homogeneously distributed radioactivity over the 2 mL volume aqueous liquid within the cavity.

SMILES: O=C([O-])CN(CCN(CC(=O)[O-])CC(=O)[O-])CCN(CC(=O)[O-])CC(=O)[O-].[213Bi+3] [^213Bi-DTPA]
- factor advantage in cell killing compared to ^177Lu-DOTATATE (CA20948 cells; 10% survival, CA20948 (abstract)): 6
- RBE at D10 compared to ^137Cs irradiation (CA20948 cells; CA20948): 2.0
- LQ model parameter α (CA20948 cells; CA20948, 1 h exposure, colonies after 12 d, n = 3): 0.74±0.08 /Gy
- D10 (absorbed dose of 10% survival) (CA20948 cells; CA20948, 1 h incubation, 12 d colony growth): 2.6 Gy
- RBE at 10% cell survival (CA20948 cells; in both low (BON) and high (CA20948) SSTR2 expressing cell lines): 1.5–2.0
- RBE at D10 compared to ^137Cs irradiation (BON cells): 1.8
- LQ model parameter α (BON cells; 1 h exposure, colonies after 12 d, n = 3): 0.87±0.1 /Gy
- D10 (absorbed dose of 10% survival) (BON cells; 1 h incubation, 12 d colony growth): 2.5 Gy
